The record followed here is patent US6444684B1 (priority 1993, dated 2002).

SMILES strings stand for the structures. Read-outs that look alike come from different tables or passages of the source.

In data set [1] the test system is Non-Small Cell Lung Cancer cell lines. In words: NCI in vitro anticancer screen (SRB), non-small cell lung cancer subpanel. The note with it: 48 hours exposure; average percent growth over the cell lines.
Procedure: (§1) Compounds chosen for the program are initially tested in an in vitro anticancer screen. A total of fifty-five human tumor cell lines, derived from nine cancer types (lung, colon, melanoma, renal, ovarian, brain, prostate, breast and leukemia), are used in this screen. The tumor cells are inoculated over a series of standard 96-well microtiter plates on day 0. These cells are then preincubated on the microtiter plates for 24 hours. The test compounds are added to the wells in five 10-fold dilutions starting from the highest soluble concentration. Each compound is tested against every cell line in the panel. The compounds are incubated for 48 hours with the tumor cell lines. At the termination of the assay, the cells are fixed in situ, washed, and dried. Sulforhodamine B (SRB), a pink anionic dye that binds to the basic amino acids of trichloroacetic acid-fixed cells, is added. The cells are washed again, and the remaining dye is a function of the adherent cell mass. The bound stain is solubilized and measured spectrophotometrically. The data are entered from automatic reading devices into a computer for subsequent storage and analysis.
(§2) The measured effect of each test compound on the cell lines is calculated according to one or the other of the following two expressions:
(§3) If (Mean ODtest−Mean ODtzero)□0, then PG=100×(Mean ODtest−Mean ODtzero)/(Mean ODctrl−Mean ODtzero);
(§4) If (Mean ODtest−Mean ODtzero)<0, then PG=100×(Mean ODtest−Mean ODtzero)/Meantzero;
(§5) First, a data sheet is provided which lists, for each cell line, the Mean ODtzero, the Mean ODctrl, the Mean ODtest for each of the five concentrations, the calculated PGs for each concentration, and the response parameters G150, TGI, and LC50.
(§6) Third, mean graphs at each of the principal response parameters (GI50, TGI, and LC50) are provided. […] Since the bar scale is logarithmic, a bar two units to the right implies the compound achieved the response parameter (e.g., GI50) for the cell line at a concentration 1/100 the mean concentration required over all cell lines, and thus the cell line is unusually sensitive to that compound. Bars extending to the left correspondingly imply sensitivity less than the mean. Thus, the mean graphs facilitate visual scanning of data for potential patterns of selectivity for particular cell lines or for particular subpanels with respect to a selected response parameter.
Data set [2] has as its system Ovarian Cancer cell lines. In words: NCI in vitro anticancer screen (SRB), ovarian cancer subpanel. The note with it: 48 hours exposure; average percent growth over the cell lines.
Procedure: as §1, §2, §3, §4
The subject of data set [3] is Melanoma cell lines. In words: NCI in vitro anticancer screen (SRB), melanoma subpanel. The note with it: 48 hours exposure; average percent growth over the cell lines.
Procedure: as §1, §2, §3, §4, §5, §6

The subject of data set [4] is 3LL = Lewis Lung Carcinoma Cells. The note with it: 3LL = Lewis lung carcinoma cells, compared with normal NRKE cells.
Data set [5] has as its system Leukemia cell lines. In words: NCI in vitro anticancer screen (SRB), leukemia subpanel. The note with it: for Activity (Average PG for highest dose tested) Leukemia: 48 hours exposure, average percent growth over the cell lines.
Procedure: as §1, §2, §3, §4, §5, §6
In data set [6] the test system is N/4.2-NRKE transformed by the human ras^N gene. In words: cells. The note with it: N42, read-out: LC50 N/4.2.
Data set [7] concerns 3LL = Lewis Lung Carcinoma Cells. Put plainly: cells. The note with it: Mus musculus.
Data set [8] has as its system Breast Cancer cell lines. Put plainly: NCI in vitro anticancer screen (SRB), breast cancer subpanel. The note with it: 48 hours exposure; average percent growth over the cell lines.
Procedure: as §1, §2, §3, §4

Data set [9] deals with K/1 = ras^K Transformed NRKE Cells. The note with it: for Differential Index K/1: K/1 = ras^K transformed NRKE cells, compared with normal NRKE cells; for selective toxicity against ras^K oncogene bearing tumor cells as compared to the normal, non-transformed cells: LC50 NRKE divided by LC50 K/1.
Data set [10] deals with Colon Cancer cell lines. Put plainly: NCI in vitro anticancer screen (SRB), colon cancer subpanel. The note with it: 48 hours exposure; average percent growth over the cell lines.
Procedure: as §1, §2, §3, §4
In data set [11] the test system is H/1.2 = ras^H Transformed NRKE Cells. Put plainly: cells. The note with it: Rattus norvegicus, read-out: LC50 H/1.2.
Data set [12] has the same test system. The note with it: for Differential Index H/1.2: H/1.2 = ras^H transformed NRKE cells, compared with normal NRKE cells.
A short description of data set [13]: in vitro. The note with it: rat, LC50 NRKE.
For data set [14], the system named is N/4.2-NRKE transformed by the human ras^N gene. The note with it: for Differential Index N/4.2: N/4.2 = ras^N transformed NRK cells, compared with normal NRKE cells.
Data set [15] deals with Renal Cancer cell lines. In words: NCI in vitro anticancer screen (SRB), renal cancer subpanel. The note with it: 48 hours exposure; average percent growth over the cell lines.
The test system of data set [16] is CNS Cancer cell lines. In words: NCI in vitro anticancer screen (SRB), CNS cancer subpanel. The note with it: 48 hours exposure; average percent growth over the cell lines.
Procedure: as §1, §2, §3, §4, §5, §6

Data set [17] concerns K/1 = ras^K Transformed NRKE Cells. Put plainly: cells. The note with it: Rattus norvegicus, read-out: LC50 K/1.
In data set [18] the test system is Prostate Cancer cell lines. Put plainly: NCI in vitro anticancer screen (SRB), prostate cancer subpanel. The note with it: 48 hours exposure; average percent growth over the cell lines.
Procedure: as §1, §2, §3, §4
Data set [19] deals with K/1-NRKE tumor (ras^K-transformed NRKE cells).
[20] abbreviates: read-out: LC50 3LL, Table XV (Example 51).

Consider `CCCC(=O)NC1=CC(=O)c2ccc(C)nc2C1=O` [Compound 30, 7-BUTYRAMIDO-2-METHYLQUINOLINE-5,8-DIONE], for which the “Activity (Average PG for highest dose tested) Non-Small Cell Lung Cancer” value in data set [1] is on record as −71.1%. For the same molecule, the “Activity (Average PG for highest dose tested) Ovarian Cancer” value in data set [2] is reported as −86.7%. Also, the “Activity (Average PG for highest dose tested) Melanoma” value in [3] is given as −85.1%. Further, the “Differential Index 3LL” value in data set [4] was determined as 0.9. The “Activity (Average PG for highest dose tested) Leukemia” value in [5] was −21.7%. For the same molecule, the “selectivity for leukemia (in words)” value in data set [5] (repeat cancer screen) was “showed selectivity for leukemia”. In addition, the CC50 in [6] is above 3.3 µM; in data set [7] (setting [20]), 2.2 µM; in [11] it was 2.7 µM; in data set [17], above 3.3 µM. The “Activity (Average PG for highest dose tested) Breast Cancer” value in [8] is listed as −62.7%. In data set [9], the “Differential Index K/1” value is below 0.6. The “Activity (Average PG for highest dose tested) Colon Cancer” value in data set [10] is listed as −66.6%. Moreover, the “Differential Index H/1.2” value in [12] is reported as 0.7. In data set [13], this molecule registered a CC50 at 5 days of 2 µM. The “Differential Index N/4.2” value in data set [14] is below 0.6. In addition, the “Activity (Average PG for highest dose tested) Renal Cancer” value in data set [15] was −92.0%. Besides, the “Activity (Average PG for highest dose tested) CNS Cancer” value in data set [16] was −93.8%. Moreover, the “Activity (Average PG for highest dose tested) Prostate Cancer” value in data set [18] was −79.0%.

Take `CCCC(=O)NC1=CC(=O)c2ccc(C=O)nc2C1=O` [Compound 26, 7-BUTYRAMIDO-2-FORMYLQUINOLINE-5,8-DIONE]: the “Activity (Average PG for highest dose tested) Non-Small Cell Lung Cancer” value in data set [1] is recorded as −50.9%. The “Activity (Average PG for highest dose tested) Ovarian Cancer” value in data set [2] is recorded as −63.2%. Moreover, the “Activity (Average PG for highest dose tested) Melanoma” value in [3] is on record as −79.0%. Also, the “Differential Index 3LL” value in [4] worked out at 1.2. Further, in data set [5], the “Activity (Average PG for highest dose tested) Leukemia” value is given as −10.8%. Besides, the CC50 in data set [6] was above 3.3 µM; in [7] (setting [20]), 2.5 µM; in [11] it was 3.3 µM; in [17] it was above 3.3 µM. In data set [8], the “Activity (Average PG for highest dose tested) Breast Cancer” value is −35.0%. Moreover, the “Differential Index K/1” value in data set [9] is given as below 0.9. In addition, the “Activity (Average PG for highest dose tested) Colon Cancer” value in data set [10] is −17.9%. For the same molecule, the “Differential Index H/1.2” value in data set [12] was 0.9. The molecule also came in with a CC50 at 5 days in [13] of 3 µM. Further, the “Differential Index N/4.2” value in [14] is reported as below 0.9. In addition, in data set [15], the “Activity (Average PG for highest dose tested) Renal Cancer” value is recorded as −93.0%. Besides, the “Activity (Average PG for highest dose tested) CNS Cancer” value in data set [16] is −61.0%. For the same molecule, the “Activity (Average PG for highest dose tested) Prostate Cancer” value in [18] is reported as −81.5%.

For the molecule `CC(=O)NC1=CC(=O)c2ccc(-c3nc(C(=O)OCCC(C)C)cc4c3[nH]c3ccccc34)nc2C1=O` [Compound 20], the “Activity (Average PG for highest dose tested) Non-Small Cell Lung Cancer” value in data set [1] is −19.1%. Further, the “Activity (Average PG for highest dose tested) Ovarian Cancer” value in data set [2] is −42.2%. For the same molecule, the “Activity (Average PG for highest dose tested) Melanoma” value in data set [3] is −75.2%. In addition, in data set [5], the “Activity (Average PG for highest dose tested) Leukemia” value is reported as −4.0%. Further, in data set [8], the “Activity (Average PG for highest dose tested) Breast Cancer” value is recorded as −38.6%. Further, the “selective toxicity against ras^K oncogene bearing tumor cells as compared to the normal, non-transformed cells” value in [9] turned out to be 18 fold. In addition, the “Activity (Average PG for highest dose tested) Colon Cancer” value in data set [10] is −53.0%. In addition, the “tumor growth inhibition in vivo (in words)” value in data set [19] (mouse, in vivo) is recorded as “excellent tumor growth inhibition”. For the same molecule, the “Activity (Average PG for highest dose tested) Renal Cancer” value in [15] was −56.1%. Further, the “Activity (Average PG for highest dose tested) CNS Cancer” value in data set [16] is recorded as −49.5%. In addition, in [18], the “Activity (Average PG for highest dose tested) Prostate Cancer” value is recorded as −70.5%.

In the case of `CCCCCCCCOC(=O)c1cc2c([nH]c3ccccc32)c(-c2ccc3c(n2)C(=O)C(NC(C)=O)=CC3=O)n1` [Compound 21], in [1], the “Activity (Average PG for highest dose tested) Non-Small Cell Lung Cancer” value is given as “+13.0%”. Further, in [2], the “Activity (Average PG for highest dose tested) Ovarian Cancer” value is “+47.0%”. The “Activity (Average PG for highest dose tested) Melanoma” value in data set [3] is “+58.6%”. The “Activity (Average PG for highest dose tested) Leukemia” value in [5] is “+20.3%”. Moreover, the “Activity (Average PG for highest dose tested) Breast Cancer” value in data set [8] is “+62.9%”. Moreover, the results for the CC50 in data set [9], in data set [12] and in data set [14] were 0.25 µM, 7.6 µM and 9 µM, respectively. The “selective toxicity against ras^K oncogene bearing tumor cells as compared to the normal, non-transformed cells” value in [9] was determined as 132 fold. For the same molecule, in [10], the “Activity (Average PG for highest dose tested) Colon Cancer” value is “+62.3%”. The “Number Dead Number Treated” value in data set [19] (150 Mg/Kg/Day IP once daily for 8 days) and in [19] (300 Mg/Kg/Day IP once daily for 8 days) was 0/7 in each case. In addition, the “toxicity in tumor-bearing nude mice (in words)” value in data set [19] (even at doses up to 300 mg/kg/day) is given as “little or no toxicity”. The “tumor growth inhibition in vivo (in words)” value in [19] (summary of Table X) was “excellent tumor growth inhibition”. Also, the “Activity (Average PG for highest dose tested) Renal Cancer” value in [15] was “+67.5%”. Further, the “Activity (Average PG for highest dose tested) CNS Cancer” value in data set [16] was “+59.3%”. In addition, the “Activity (Average PG for highest dose tested) Prostate Cancer” value in data set [18] is reported as “+69.5%”.

Consider `O=Cc1ccc2c(n1)C(=O)C(NC(=O)CCl)=CC2=O` [Compound 24, 7-CHLOROACETAMIDO-2-FORMYLQUINOLINE-5,8-DIONE], for which the “Differential Index 3LL” value in [4] amounted to 1.7. For the same molecule, the CC50 was 3.2 µM in data set [6], 2.1 µM in data set [7] (setting [20]), 3.4 µM in data set [11] and 5.8 µM in [17]. For the same molecule, the “Differential Index K/1” value in [9] stood at 0.6. The “Differential Index H/1.2” value in [12] is reported as 1.06. This molecule also registered a CC50 at 5 days in data set [13] of 3.6 µM. Moreover, the “Differential Index N/4.2” value in data set [14] was determined as 1.125.

With `Cc1ccc2c(n1)C(=O)C(NC(=O)CCl)=CC2=O` [Compound 28, 7-CHLOROACETAMIDO-2-METHYLQUINOLINE-5,8-DIONE], the “Differential Index 3LL” value in data set [4] is 1.4. The CC50 in data set [6] turned out to be 3.4 µM; in data set [7] (setting [20]) it was 2.3 µM; in data set [11] it was 2.8 µM; in [17] it was 6.6 µM. Also, the “Differential Index K/1” value in data set [9] is listed as 0.48. For the same molecule, in data set [12], the “Differential Index H/1.2” value is 1.1. In data set [13], this molecule had a CC50 at 5 days of 3.2 µM. Further, the “Differential Index N/4.2” value in data set [14] stood at 0.9.

On to `CC(=O)NC1=CC(=O)c2ccc(C=O)nc2C1=O` [Compound 23, 7-ACETAMIDO-2-FORMYLQUINOLINE-5,8-DIONE], for which the “Differential Index 3LL” value in data set [4] is 1.35. The CC50 in data set [6] was 7 µM; in data set [7] (120 h, read-out: LC50 3LL, Table VII, concentration giving 50% cell kill, 5 days exposure), 1.2 µM; in [7] (setting [20]), 3.7 µM; in data set [11] (120 h) it was 2.5 µM; in data set [11], 5.5 µM; in data set [17] (120 h), 2.6 µM. Also, the CC50 in data set [17] amounted to 12.5 µM. Besides, the “Differential Index K/1” value in [9] is recorded as 0.4. Further, in [12], the “Differential Index H/1.2” value was determined as 0.9. In data set [14], the “Differential Index N/4.2” value is recorded as 0.7.
